Measured values as given in publication PMC10041525, “New Dual Inhibitors of Bacterial Topoisomerases with Broad-Spectrum Antibacterial Activity and In Vivo Efficacy against Vancomycin-Intermediate Staphylococcus aureus” (Journal of Medicinal Chemistry, 2023).
Converted amounts (≈) assume the structure as drawn. Read-outs that look alike come from different tables or passages of the source.

What was measured:
[1] = system: 100 A. baumannii strains (50 MDR, 50 non-MDR); test: MIC broth microdilution at IHMA Europe, panel of 100 strains; assay type: cell-based; conditions: for MIC / MIC50 / MIC90: Acinetobacter baumannii; for MIC50: read-out: MIC 50; for MIC90: read-out: MIC 90
in vitro = in vitro ADME, mouse; conditions: male, CD-1, mouse

Cc1[nH]c(C(=O)Nc2nc3c(N4[C@@H]5CC[C@H]4COC5)cc(C(=O)O)cc3s2)c(Cl)c1Cl [7h, 4-((1R,5S)-3-Oxa-8-azabicyclo[3.2.1]octan-8-yl)-2-(3,4-dichloro-5-methyl-1H-pyrrole-2-carboxamido)benzo[d]thiazole-6-carboxylic Acid]
MIC ([1]; A. baumannii IHMA 2051503, Serbia 2019, MDR, read-out: MIC): 2 mg/L (≈ 4.15 µM) | MIC ([1]; A. baumannii IHMA 2058329, Slovenia 2019, Non-MDR, read-out: MIC): 4 mg/L (≈ 8.31 µM) | MIC ([1]; A. baumannii IHMA 2065587, France 2019, Non-MDR, read-out: MIC): 1 mg/L (≈ 2.08 µM) | MIC ([1]; A. baumannii IHMA 2099294, United Kingdom 2019, Non-MDR, read-out: MIC): 2 mg/L (≈ 4.15 µM) | MIC ([1]; A. baumannii IHMA 2129256, Qatar 2019, Non-MDR, read-out: MIC): 4 mg/L (≈ 8.31 µM) | MIC ([1]; A. baumannii IHMA 2154584, Israel 2020, MDR, read-out: MIC): 2 mg/L (≈ 4.15 µM) | MIC ([1]; A. baumannii IHMA 2155340, Kenya 2020, MDR, read-out: MIC): 2 mg/L (≈ 4.15 µM) | MIC ([1]; A. baumannii IHMA 2156634, Turkey 2020, MDR, read-out: MIC): 2 mg/L (≈ 4.15 µM) | MIC ([1]; A. baumannii IHMA 2156709, Turkey 2020, MDR, read-out: MIC): 2 mg/L (≈ 4.15 µM) | MIC ([1]; A. baumannii IHMA 2157614, Australia 2020, Non-MDR, read-out: MIC): 4 mg/L (≈ 8.31 µM) | MIC ([1]; A. baumannii IHMA 2177232, Lithuania 2020, MDR, read-out: MIC): 4 mg/L (≈ 8.31 µM) | MIC ([1]; A. baumannii IHMA 2177489, Lithuania 2020, MDR, read-out: MIC): 2 mg/L (≈ 4.15 µM) | MIC ([1]; A. baumannii IHMA 2178574, Ukraine 2020, Non-MDR, read-out: MIC): 4 mg/L (≈ 8.31 µM) | MIC ([1]; A. baumannii IHMA 2180134, Malaysia 2020, Non-MDR, read-out: MIC): 2 mg/L (≈ 4.15 µM) | MIC ([1]; A. baumannii IHMA 2180142, Malaysia 2020, MDR, read-out: MIC): 2 mg/L (≈ 4.15 µM) | MIC ([1]; A. baumannii IHMA 2181370, Morocco 2020, MDR, read-out: MIC): 2 mg/L (≈ 4.15 µM) | MIC ([1]; A. baumannii IHMA 2183729, Argentina 2020, MDR, read-out: MIC): 4 mg/L (≈ 8.31 µM) | MIC ([1]; A. baumannii IHMA 2183849, Argentina 2020, Non-MDR, read-out: MIC): 2 mg/L (≈ 4.15 µM) | MIC ([1]; A. baumannii IHMA 2184382, Japan 2020, Non-MDR, read-out: MIC): 2 mg/L (≈ 4.15 µM) | MIC ([1]; A. baumannii IHMA 2193375, Venezuela 2020, MDR, read-out: MIC): 2 mg/L (≈ 4.15 µM) | MIC ([1]; A. baumannii IHMA 2193485, Venezuela 2020, Non-MDR, read-out: MIC): 1 mg/L (≈ 2.08 µM) | MIC ([1]; A. baumannii IHMA 2193607, Venezuela 2020, MDR, read-out: MIC): 2 mg/L (≈ 4.15 µM) | MIC ([1]; A. baumannii IHMA 2195460, Italy 2020, MDR, read-out: MIC): 2 mg/L (≈ 4.15 µM) | MIC ([1]; A. baumannii IHMA 2196914, South Africa 2020, MDR, read-out: MIC): 2 mg/L (≈ 4.15 µM) | MIC ([1]; A. baumannii IHMA 2196959, South Africa 2020, MDR, read-out: MIC): 2 mg/L (≈ 4.15 µM) | MIC ([1]; A. baumannii IHMA 2203763, Spain 2020, MDR, read-out: MIC): 4 mg/L (≈ 8.31 µM) | MIC ([1]; A. baumannii IHMA 2205144, Korea, South 2020, MDR, read-out: MIC): 2 mg/L (≈ 4.15 µM) | MIC ([1]; A. baumannii IHMA 2206459, Taiwan 2020, MDR, read-out: MIC): 2 mg/L (≈ 4.15 µM) | MIC ([1]; A. baumannii IHMA 2206507, Taiwan 2020, Non-MDR, read-out: MIC): 1 mg/L (≈ 2.08 µM) | MIC ([1]; A. baumannii IHMA 2212575, Hungary 2020, Non-MDR, read-out: MIC): 4 mg/L (≈ 8.31 µM) | MIC ([1]; A. baumannii IHMA 2215307, Hong Kong 2020, Non-MDR, read-out: MIC): 2 mg/L (≈ 4.15 µM) | MIC ([1]; A. baumannii IHMA 2216586, Taiwan 2020, MDR, read-out: MIC): 2 mg/L (≈ 4.15 µM) | MIC ([1]; A. baumannii IHMA 2223200, Colombia 2020, Non-MDR, read-out: MIC): 2 mg/L (≈ 4.15 µM) | MIC ([1]; A. baumannii IHMA 2224017, Panama 2020, MDR, read-out: MIC): 4 mg/L (≈ 8.31 µM) | MIC ([1]; A. baumannii IHMA 2224303, Panama 2020, Non-MDR, read-out: MIC): 4 mg/L (≈ 8.31 µM) | MIC ([1]; A. baumannii IHMA 2231797, Greece 2020, MDR, read-out: MIC): 2 mg/L (≈ 4.15 µM) | MIC ([1]; A. baumannii IHMA 2233099, Guatemala 2020, MDR, read-out: MIC): 4 mg/L (≈ 8.31 µM) | MIC ([1]; A. baumannii IHMA 2233430, Kazakhstan 2020, MDR, read-out: MIC): 2 mg/L (≈ 4.15 µM) | MIC ([1]; A. baumannii IHMA 2233548, Kazakhstan 2020, Non-MDR, read-out: MIC): 4 mg/L (≈ 8.31 µM) | MIC ([1]; A. baumannii IHMA 2238964, Thailand 2020, MDR, read-out: MIC): 4 mg/L (≈ 8.31 µM) | MIC ([1]; A. baumannii IHMA 2239052, Thailand 2020, Non-MDR, read-out: MIC): 4 mg/L (≈ 8.31 µM) | MIC ([1]; A. baumannii IHMA 2261047, Belgium 2020, MDR, read-out: MIC): 4 mg/L (≈ 8.31 µM) | MIC ([1]; A. baumannii IHMA 2261633, Canada 2020, Non-MDR, read-out: MIC): 4 mg/L (≈ 8.31 µM) | MIC ([1]; A. baumannii IHMA 2274234, South Africa 2020, MDR, read-out: MIC): 2 mg/L (≈ 4.15 µM) | MIC ([1]; A. baumannii IHMA 2274364, South Africa 2020, MDR, read-out: MIC): 2 mg/L (≈ 4.15 µM) | MIC ([1]; A. baumannii IHMA 2275237, Chile 2020, Non-MDR, read-out: MIC): 2 mg/L (≈ 4.15 µM) | MIC ([1]; A. baumannii IHMA 2275751, Jordan 2020, MDR, read-out: MIC): 2 mg/L (≈ 4.15 µM) | MIC ([1]; A. baumannii IHMA 2316205, United States 2020, MDR, read-out: MIC): 2 mg/L (≈ 4.15 µM) | MIC ([1]; MDR n = 50, read-out: MAX (maximum MIC; all strains inhibited)): 4 mg/L (≈ 8.31 µM) | MIC50 ([1]; MDR n = 50): 2 mg/L (≈ 4.15 µM) | MIC90 ([1]; MDR n = 50): 4 mg/L (≈ 8.31 µM) | MIC ([1]; MDR n = 50, read-out: MIN (minimum MIC)): 1 mg/L (≈ 2.08 µM) | MIC ([1]; all isolates n = 100, read-out: MAX (maximum MIC; all strains inhibited)): 8 mg/L (≈ 16.6 µM) | MIC50 ([1]; all isolates n = 100): 2 mg/L (≈ 4.15 µM) | MIC90 ([1]; all isolates n = 100): 4 mg/L (≈ 8.31 µM) | MIC ([1]; all isolates n = 100, read-out: MIN (minimum MIC)): 1 mg/L (≈ 2.08 µM) | MIC ([1]; non-MDR n = 50, read-out: MAX (maximum MIC)): 8 mg/L (≈ 16.6 µM) | MIC50 ([1]; non-MDR n = 50): 2 mg/L (≈ 4.15 µM) | MIC90 ([1]; non-MDR n = 50): 4 mg/L (≈ 8.31 µM) | MIC ([1]; non-MDR n = 50, read-out: MIN (minimum MIC)): 1 mg/L (≈ 2.08 µM) | MAX (maximum MIC; all strains inhibited) ([1]; MDR n = 50): 4 mg/L | MAX (maximum MIC; all strains inhibited) ([1]; all isolates n = 100): 8 mg/L | fraction unbound at 4 h, 5 μM (in vitro; plasma, fu, fraction unbound): 0.009 | recovery at 4 h, 5 μM (in vitro; plasma protein binding assay): 89%
